Assay results: the NIST ThermoML archive (doi:10.1016/j.jct.2006.09.012)
Values joined by “and” are separate entries in the source; they are usually repeats but may differ in a detail not shown here. Equal entries are not always repeated.

Details: Gas, Buoyancy - hydrostatic balance with magnetic suspension - two sinkers

[He] [helium]
Details	mass density
223.15 K, 1881.4 kPa	4.0102 kg/m3 and 4.0101 kg/m3
223.15 K, 1881.5 kPa	4.0102 kg/m3
223.15 K, 3970 kPa	8.3499 kg/m3
223.15 K, 3970.1 kPa	8.3501 kg/m3 and 8.3499 kg/m3 and 8.35 kg/m3
223.15 K, 3970.2 kPa	8.3499 kg/m3
223.15 K, 8133.1 kPa	16.67 kg/m3 and 16.6699 kg/m3 and 16.6701 kg/m3
223.15 K, 8133.2 kPa	16.6699 kg/m3 and 16.6701 kg/m3
223.15 K, 11880 kPa	23.8087 kg/m3 [middle of 5 runs]
223.15 K, 15827 kPa	30.9985 kg/m3
223.15 K, 15828 kPa	30.9993 kg/m3 [middle of 4 runs]
223.15 K, 19642 kPa	37.6507 kg/m3 [middle of 4 runs]
223.15 K, 26024 kPa	48.1863 kg/m3 and 48.1868 kg/m3
223.15 K, 26025 kPa	48.1881 kg/m3 and 48.1886 kg/m3 and 48.1887 kg/m3
223.15 K, 32014 kPa	57.4666 kg/m3
223.15 K, 32015 kPa	57.4668 kg/m3 and 57.4679 kg/m3
223.15 K, 32016 kPa	57.4684 kg/m3
223.15 K, 32017 kPa	57.4698 kg/m3
223.15 K, 38281 kPa	66.6119 kg/m3
223.15 K, 38282 kPa	66.6131 kg/m3 and 66.6126 kg/m3
223.15 K, 38283 kPa	66.614 kg/m3
223.15 K, 38284 kPa	66.616 kg/m3
253.15 K, 1929.2 kPa	3.629 kg/m3 and 3.6292 kg/m3
253.15 K, 1929.3 kPa	3.629 kg/m3 and 3.6294 kg/m3 and 3.6292 kg/m3
253.15 K, 3784.6 kPa	7.046 kg/m3 and 7.0462 kg/m3 and 7.0461 kg/m3
253.15 K, 7472.2 kPa	13.634 kg/m3
253.15 K, 7472.3 kPa	13.634 kg/m3
253.15 K, 11895 kPa	21.202 kg/m3 and 21.2018 kg/m3
253.15 K, 11896 kPa	21.2023 kg/m3 and 21.2022 kg/m3 and 21.2019 kg/m3
253.15 K, 15957 kPa	27.8548 kg/m3
253.15 K, 15958 kPa	27.8555 kg/m3 [middle of 4 runs]
253.15 K, 19865 kPa	34.0064 kg/m3 and 34.007 kg/m3
253.15 K, 19866 kPa	34.0081 kg/m3 and 34.0112 kg/m3
253.15 K, 25976 kPa	43.1785 kg/m3
253.15 K, 25977 kPa	43.179 kg/m3 and 43.1796 kg/m3
253.15 K, 25978 kPa	43.181 kg/m3 and 43.1801 kg/m3
253.15 K, 31938 kPa	51.6436 kg/m3 and 51.6443 kg/m3
253.15 K, 31940 kPa	51.647 kg/m3 and 51.6462 kg/m3 and 51.6454 kg/m3
253.15 K, 37813 kPa	59.5651 kg/m3
253.15 K, 37814 kPa	59.5664 kg/m3
253.15 K, 37815 kPa	59.5673 kg/m3
253.15 K, 37816 kPa	59.5686 kg/m3
253.15 K, 37817 kPa	59.5703 kg/m3
273.16 K, 935.8 kPa	1.6415 kg/m3
273.16 K, 935.9 kPa	1.6416 kg/m3 and 1.6415 kg/m3
273.16 K, 1881.8 kPa	3.2839 kg/m3
273.16 K, 1927.3 kPa	3.363 kg/m3 and 3.3629 kg/m3
273.16 K, 1927.4 kPa	3.3629 kg/m3 and 3.363 kg/m3
273.16 K, 1956.4 kPa	3.4135 kg/m3
273.16 K, 1956.5 kPa	3.4135 kg/m3 and 3.4134 kg/m3
273.16 K, 3626.6 kPa	6.273 kg/m3 and 6.2731 kg/m3
273.16 K, 3626.7 kPa	6.2732 kg/m3
273.16 K, 3626.8 kPa	6.2735 kg/m3
273.16 K, 3926.1 kPa	6.7802 kg/m3
273.16 K, 3926.2 kPa	6.7804 kg/m3 and 6.7802 kg/m3 and 6.7803 kg/m3
273.16 K, 3952.8 kPa	6.8257 kg/m3
273.16 K, 3952.9 kPa	6.8257 kg/m3
273.16 K, 3975.1 kPa	6.8634 kg/m3
273.16 K, 3975.2 kPa	6.8633 kg/m3 and 6.8635 kg/m3
273.16 K, 7764.9 kPa	13.1534 kg/m3
273.16 K, 7765.3 kPa	13.1538 kg/m3
273.16 K, 7765.7 kPa	13.1545 kg/m3
273.16 K, 7766.1 kPa	13.1555 kg/m3
273.16 K, 7766.6 kPa	13.1563 kg/m3
273.16 K, 7916 kPa	13.399 kg/m3
273.16 K, 7916.1 kPa	13.3992 kg/m3 and 13.399 kg/m3 and 13.3991 kg/m3
273.16 K, 7973.3 kPa	13.4919 kg/m3
273.16 K, 7973.4 kPa	13.4923 kg/m3 and 13.4922 kg/m3 and 13.4921 kg/m3
273.16 K, 8006.1 kPa	13.5452 kg/m3
273.16 K, 8006.2 kPa	13.5452 kg/m3
273.16 K, 11783 kPa	19.5712 kg/m3 [middle of 5 runs]
273.16 K, 11830 kPa	19.6435 kg/m3 [middle of 5 runs]
273.16 K, 11855 kPa	19.6832 kg/m3 [middle of 5 runs]
273.16 K, 12056 kPa	19.9988 kg/m3 [middle of 5 runs]
273.16 K, 15586 kPa	25.4233 kg/m3 and 25.4234 kg/m3
273.16 K, 15587 kPa	25.4235 kg/m3 and 25.4232 kg/m3
273.16 K, 15980 kPa	26.017 kg/m3 [middle of 5 runs]
273.16 K, 16077 kPa	26.1628 kg/m3 and 26.1631 kg/m3
273.16 K, 16078 kPa	26.164 kg/m3 and 26.1636 kg/m3 and 26.1633 kg/m3
273.16 K, 16090 kPa	26.1822 kg/m3 [middle of 5 runs]
273.16 K, 19645 kPa	31.445 kg/m3 [middle of 4 runs]
273.16 K, 19708 kPa	31.5381 kg/m3 and 31.5379 kg/m3
273.16 K, 19709 kPa	31.5382 kg/m3 and 31.5385 kg/m3 and 31.5386 kg/m3
273.16 K, 19869 kPa	31.7712 kg/m3 and 31.7709 kg/m3
273.16 K, 19870 kPa	31.7727 kg/m3 and 31.7718 kg/m3 and 31.7722 kg/m3
273.16 K, 20242 kPa	32.3124 kg/m3 [middle of 4 runs]
273.16 K, 20243 kPa	32.314 kg/m3
273.16 K, 25434 kPa	39.6666 kg/m3 and 39.6662 kg/m3 and 39.6672 kg/m3
273.16 K, 25435 kPa	39.6682 kg/m3 and 39.6678 kg/m3
273.16 K, 25464 kPa	39.7083 kg/m3
273.16 K, 25465 kPa	39.7092 kg/m3
273.16 K, 25466 kPa	39.7107 kg/m3 and 39.7113 kg/m3 and 39.7099 kg/m3
273.16 K, 25915 kPa	40.3302 kg/m3 and 40.3307 kg/m3 and 40.3313 kg/m3
273.16 K, 25916 kPa	40.3324 kg/m3 and 40.3317 kg/m3
273.16 K, 25964 kPa	40.3998 kg/m3
273.16 K, 25965 kPa	40.4011 kg/m3 and 40.4013 kg/m3
273.16 K, 25966 kPa	40.402 kg/m3
273.16 K, 31576 kPa	47.9567 kg/m3
